Results: ChEMBL document CHEMBL4316639, “Clavukoellians A-F, Highly Rearranged Nardosinane Sesquiterpenoids with Antiangiogenic Activity from Clavularia koellikeri” (2019)
Activity calls are given as the source filed them. The calls are words filed in the database; no cut-off is given here.

How the values were obtained:
HUVEC [1] = test: Antiangiogenic activity in HUVEC assessed as inhibition of cell migration incubated for 6 to 24 hrs by wound healing assay; format: functional, cell-based; conditions: Homo sapiens
HUVEC [2] = test: Antiangiogenic activity in HUVEC assessed as inhibition of cell migration at 2.5 uM incubated for 6 to 24 hrs by wound healing assay; format: functional, cell-based; conditions: Homo sapiens
[3] = Antiproliferative activity in human OE21 cells assessed as inhibition of cell proliferation by Cell-titer-Glo method; format: functional
MV4-11 = test: Antiproliferative activity in human MV4-11 cells assessed as inhibition of cell proliferation by Cell-titer-Glo method; format: functional
MOLM-13 = test: Antiproliferative activity in human MOLM13 cells assessed as inhibition of cell proliferation by Cell-titer-Glo method; format: functional
OE19 = test: Antiproliferative activity in human OE19 cells assessed as inhibition of cell proliferation by Cell-titer-Glo method; format: functional
KYSE-520 cell line = test: Antiproliferative activity in human KYSE520 cells assessed as inhibition of cell proliferation by Cell-titer-Glo method; format: functional

| GI50 (MV4-11) | GI50 (MOLM-13) | Structure (SMILES) | Activity (HUVEC [1]) | Activity (HUVEC [2]) | GI50 [3] | GI50 (OE19) | GI50 (KYSE-520 cell line) |
| --- | --- | --- | --- | --- | --- | --- | --- |
| – | – | CC1=C([C@@]2(C)C3=CC(=O)O[C@@H]3CC[C@@H]2C)C(=O)NC1=O | Dose-dependent effect | Active | – | – | – |
| – | – | C/C1=C/[C@@]2(C)C(=CCC[C@@H]2C)CC[C@H](O)[C@H]1O | Dose-dependent effect | Active | – | – | – |
| 6.4 to 8.6 µM | 6.4 to 8.6 µM | C[C@@H]1C(=O)O[C@]23C=CC(=O)[C@H]1[C@]2(C)[C@@H](C)CC[C@H]3O | – | – | 6.4 to 8.6 µM | 6.4 to 8.6 µM | 6.4 to 8.6 µM |
